According to patent US12180255B2, “Compositions and methods for derepressing RE1 silencing transcription factor target genes” (Alcamena Stem Cell Therapeutics, LLC, priority 2019, dated 2024):
Where a SMILES comes first, the peptide text is derived from it. [ ]: non-standard residue; d: D form. Gly(Dodecyl) = CCCCCCCCCCCC[C@H](N)C(=O)O

Columns and labels:
Type in all cases: biochemical
CTDSP1 [1] = target: T1, CTDSP1 (Homo sapiens, UniProt Q9GZU7); assay: In vitro CTDSP1 phosphatase activity on phosphorylated REST peptide; conditions: phosphorylated REST peptide substrate; read-out: EC50, inhibition of CTDSP1 activity
T1 construct: GSGS linker + His6 (C)
T1 sequence (Q9GZU7 with tags, fused parts or gaps): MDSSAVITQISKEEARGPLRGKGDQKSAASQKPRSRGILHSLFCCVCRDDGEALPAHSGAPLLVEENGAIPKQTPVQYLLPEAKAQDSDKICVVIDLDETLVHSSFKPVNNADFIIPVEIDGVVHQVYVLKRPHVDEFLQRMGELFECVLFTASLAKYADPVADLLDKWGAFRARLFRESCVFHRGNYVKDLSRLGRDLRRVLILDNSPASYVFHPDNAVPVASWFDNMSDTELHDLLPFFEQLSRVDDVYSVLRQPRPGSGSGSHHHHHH
Description: FIG. 25. In vitro CTDSP1 phosphatase activity (relative to GST control) on the REST peptide (TEDpSPPp[…] (SEQ ID NO: 329)) as a substrate after exposure to 1 μM of RPP (SEQ ID NO: 1) or one of its variants (Table 3).
FIG. 26. […] N=5, error bars are standard deviation.
Results: FIG. 25—The top 51 most abundant RPP variants identified in the RNA display/protein evolution screen are listed in-Table 3 in the order of most (V1) to least (V51) abundant peptides. The primers used to make these peptides are listed in-Table 5. A phosphatase activity screen (Table 6, FIG. 25) was used to assess the ability of the top 51 RPPV to inhibit CTDSP1 phosphatase activity at amino acids 861 and 864 on the endogenous phosphorylated REST peptide (TEDpSPPp[…] (SEQ ID NO: 329)).
The phosphorylated REST peptide (TEDpSPPp[…] (SEQ ID NO: 329)) was synthesized by GeneScript. Phosphatase reactions were performed with 10 mM Tris pH 8, 10 mM MgCl2, 100 nM CTDSP1, 0.5 μM phosphate sensor (Thermo Fischer), 50 μM of REST peptide and various concentrations of peptide-GST fusions at room temperature for 10 min. All assays were performed in 96-well pates (Corning P/N 3686) rinsed with water 10 times. Fluorescence was measured by BioTek Synergy HTX using kinetic read with excitation at 420/27 nm and emission at 485/20 nm.

PPA1 = target: T2, PPA1 (Homo sapiens, UniProt Q15181); assay: Off target phosphatase activity on phosphorylated REST peptide; conditions: 10000 nM RPP
T2 sequence (Q15181 2-289 limits assumed): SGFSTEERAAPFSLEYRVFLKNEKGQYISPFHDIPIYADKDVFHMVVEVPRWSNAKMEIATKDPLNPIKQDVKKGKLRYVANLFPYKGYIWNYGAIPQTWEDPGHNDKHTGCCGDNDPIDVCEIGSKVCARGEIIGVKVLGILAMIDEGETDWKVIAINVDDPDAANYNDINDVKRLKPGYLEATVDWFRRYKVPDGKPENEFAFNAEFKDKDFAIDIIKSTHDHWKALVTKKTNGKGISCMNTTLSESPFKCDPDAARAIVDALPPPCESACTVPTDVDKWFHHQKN

PPM1A = target: T3, PPM1A (Homo sapiens, UniProt P35813); assay: as above; conditions: 10000 nM RPP
T3 sequence (P35813 1-382): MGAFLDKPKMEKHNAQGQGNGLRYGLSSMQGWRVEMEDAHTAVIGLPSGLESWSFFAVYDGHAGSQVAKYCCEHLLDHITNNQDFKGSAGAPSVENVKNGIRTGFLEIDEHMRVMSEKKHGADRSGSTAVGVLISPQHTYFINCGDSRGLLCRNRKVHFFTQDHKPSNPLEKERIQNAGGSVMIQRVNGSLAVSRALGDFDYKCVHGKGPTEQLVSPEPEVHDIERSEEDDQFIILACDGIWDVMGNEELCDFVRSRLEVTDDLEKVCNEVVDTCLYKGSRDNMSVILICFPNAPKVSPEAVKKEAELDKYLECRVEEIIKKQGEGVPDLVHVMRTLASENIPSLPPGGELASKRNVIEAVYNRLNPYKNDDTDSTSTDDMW

PP3CA = PP3CA (Homo sapiens, UniProt Q08209); assay: as above; conditions: 10000 nM RPP
PPP1CA = PPP1CA (Homo sapiens, UniProt P62136); assay: as above; conditions: 10000 nM RPP
Chain of PPP1CA (P62136 whole entry, species assumed): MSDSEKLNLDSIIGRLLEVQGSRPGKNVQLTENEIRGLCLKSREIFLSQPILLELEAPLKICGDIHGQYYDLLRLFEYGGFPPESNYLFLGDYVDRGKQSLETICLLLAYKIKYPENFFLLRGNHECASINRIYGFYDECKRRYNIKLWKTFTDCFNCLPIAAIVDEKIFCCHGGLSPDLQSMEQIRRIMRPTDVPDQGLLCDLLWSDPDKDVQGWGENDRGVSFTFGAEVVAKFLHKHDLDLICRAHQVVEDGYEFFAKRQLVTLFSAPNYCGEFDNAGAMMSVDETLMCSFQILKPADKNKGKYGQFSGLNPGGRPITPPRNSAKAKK

PP5CA = target: T4, PP5CA (Homo sapiens, UniProt P53041); assay: as above; conditions: 10000 nM RPP
T4 sequence (P53041 1-499): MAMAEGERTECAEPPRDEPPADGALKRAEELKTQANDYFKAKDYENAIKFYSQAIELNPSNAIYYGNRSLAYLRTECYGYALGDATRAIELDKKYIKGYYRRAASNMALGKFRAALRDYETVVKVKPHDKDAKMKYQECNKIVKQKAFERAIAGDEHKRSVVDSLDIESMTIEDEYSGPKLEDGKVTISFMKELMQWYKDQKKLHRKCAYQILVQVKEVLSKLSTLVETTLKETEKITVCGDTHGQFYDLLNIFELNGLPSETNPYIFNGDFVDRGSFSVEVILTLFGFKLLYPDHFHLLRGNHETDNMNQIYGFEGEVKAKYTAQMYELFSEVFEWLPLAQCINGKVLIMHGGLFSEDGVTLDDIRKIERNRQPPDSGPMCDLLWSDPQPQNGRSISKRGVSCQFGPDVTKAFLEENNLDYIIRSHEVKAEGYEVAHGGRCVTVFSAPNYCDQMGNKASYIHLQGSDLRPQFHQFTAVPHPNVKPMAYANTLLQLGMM

CTDSP1 [2] = target: T1, CTDSP1; assay: In vitro CTDSP1 phosphatase activity on phosphorylated REST peptide; conditions: relative to water control

How did the EC50 (CTDSP1 [1]) turn out when `CCCCCCCCCCCC[C@@H]1NC(=O)[C@@H](CCCNC(=N)N)NC(=O)[C@@H](CCCNC(=N)N)NC(=O)[C@@H](Cc2c[nH]c3ccccc23)NC(=O)[C@@H](Cc2c[nH]c3ccccc23)NC(=O)[C@@H](CCCNC(=N)N)NC(=O)[C@@H](CCC(=O)O)NC(=O)[C@@H](CC(=O)O)NC(=O)[C@@H](CC(C)C)NC(=O)[C@@H](CCC(=O)O)NC(=O)[C@H]2CCCN2C(=O)[C@H]2CCCN2C(=O)[C@@H](CCC(=O)O)NC(=O)[C@H]2CCCN2C(=O)[C@H]2CCCN2C(=O)[C@@H](CC(C)C)NC(=O)[C@H]2CCCN2C(=O)[C@@H](CCCCN)NC(=O)[C@@H](CCCNC(=N)N)NC(=O)[C@@H](CCCNC(=N)N)NC(=O)[C@@H](CCCNC(=N)N)NC(=O)[C@@H](CCCNC(=N)N)NC(=O)[C@@H](CCCNC(=N)N)NC1=O` [SEQ ID NO: 12] (cyclo([dR][dW][dW][dR][dR][Gly(Dodecyl)][dR][dR][dR][dR][dR][dK][dP][dL][dP][dP][dE][dP][dP][dE][dL][dD][dE])) was run?
The EC50 was roughly 20 nM.

What about the “% Activity (Average N = 5)” value (PPA1) of the same compound?
Its value is 101.125%.

And the “% Activity (Average N = 5)” value (PPM1A)?
The value was 102.786%.

And the “% Activity (Average N = 5)” value (PP3CA)?
Its value is 100.222%.

What about the “% Activity (Average N = 5)” value (PPP1CA) of the same compound?
Its value is 101.136%.

What about the “% Activity (Average N = 5)” value (PP5CA) of the same compound?
The value was 97.902%.

What about the “% Activity (Average N = 5)” value (CTDSP1 [2]; 10 nM RPP) of the same compound?
The value was 89.97%.

And the “% Activity (Average N = 5)” value (CTDSP1 [2]; 20 nM RPP)?
The value was 48.7%.

And the “% Activity (Average N = 5)” value (CTDSP1 [2]; 40 nM RPP)?
The value was 34.46%.

What about the “% Activity (Average N = 5)” value (CTDSP1 [2]; 60 nM RPP) of the same compound?
The value was 31.17%.

What about the “% Activity (Average N = 5)” value (CTDSP1 [2]; 80 nM RPP) of the same compound?
The value was 22.67%.

And the “% Activity (Average N = 5)” value (CTDSP1 [2]; 100 nM RPP)?
Its value is 13.72%.
